From patent publication US20260306527A1, “PRMT INHIBITOR COMPOUNDS AND THE USES THEREOF” (Purdue Research Foundation, priority 2023, published 2026)

Experiments:
Assay type in all cases: biochemical
[1] = system: PRMT3; assay: SAHH-coupled fluorescence assay, inhibition of PRMT3; conditions: read-out: IC50 [µM] | PRMT3
Summary of the method: (§1)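 Coupled SAHH/ThioGlo4 fluorescence read-out (ex 380 nm, em 505 nm) of PRMT3 (0.25 μM) methylation with 30 μM AdoMet and 5 μM SAHH. Buffer was 20 mM Tris pH 7.5 with 0.01% Triton X-100. Run in duplicate.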

[2] = target: PRMT6 (Homo sapiens, UniProt Q96LA8); assay: radioactive assay (Reaction Biology Corp.), inhibition of PRMT6
Sequence of PRMT6 (Q96LA8 whole entry, species assumed): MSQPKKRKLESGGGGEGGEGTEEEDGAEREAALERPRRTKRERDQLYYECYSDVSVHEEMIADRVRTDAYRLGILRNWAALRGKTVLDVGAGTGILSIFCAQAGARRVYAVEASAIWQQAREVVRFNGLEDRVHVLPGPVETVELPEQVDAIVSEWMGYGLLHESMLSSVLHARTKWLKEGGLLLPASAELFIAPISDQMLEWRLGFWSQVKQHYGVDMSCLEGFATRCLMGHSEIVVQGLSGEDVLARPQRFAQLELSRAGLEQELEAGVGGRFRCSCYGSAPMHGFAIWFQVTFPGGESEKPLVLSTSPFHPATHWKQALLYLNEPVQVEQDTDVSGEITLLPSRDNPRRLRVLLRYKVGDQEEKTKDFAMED
Description: (§2) Next, the inhibition activity of the library was investigated for five PRMT members from type I PRMTs.
(§3) The PRMT 4, 6 and 8 methylation assays were performed by Reaction Biology corp.

[3] = target: T1, PRMT1 (Homo sapiens, UniProt Q99873); assay: SAHH-coupled fluorescence assay, inhibition of PRMT1
T1 construct: made in house
T1 sequence (Q99873 whole entry, species assumed): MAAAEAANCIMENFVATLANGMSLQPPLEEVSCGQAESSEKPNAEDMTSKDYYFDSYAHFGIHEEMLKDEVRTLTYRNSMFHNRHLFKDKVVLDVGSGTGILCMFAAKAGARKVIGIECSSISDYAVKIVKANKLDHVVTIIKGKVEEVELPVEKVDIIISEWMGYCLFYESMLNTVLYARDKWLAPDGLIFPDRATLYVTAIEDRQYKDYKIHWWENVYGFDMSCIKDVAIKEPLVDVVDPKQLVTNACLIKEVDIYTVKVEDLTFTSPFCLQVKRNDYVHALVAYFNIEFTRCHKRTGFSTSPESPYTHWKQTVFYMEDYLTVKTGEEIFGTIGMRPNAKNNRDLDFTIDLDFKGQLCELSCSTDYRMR
Summary of the method: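 PRMT1 (0.1 μM) was run with 10 μM AdoMet, 5 μM SAHH and 10 μM ThioGlo4 in 2.5 mM HEPES pH 7.0, 25 mM NaCl, 25 μM EDTA, 50 μM TCEP and 0.01% Triton X-100. Fluorescence (ex 400/em 465 nm) was monitored for 15 min. Assays were done in duplicate.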

[4] = target: PRMT3 (Homo sapiens, UniProt O60678); assay: SAHH-coupled fluorescence assay, inhibition of PRMT3; design: PRMT3 (residues 211-531) was cloned into the pET28a-MHL expression vector; tag of the pET28a-MHL vector (not described); made in house; host or cells: Escherichia coli BL21(DE3)
Sequence of PRMT3 (Homo sapiens, UniProt O60678) (O60678 211-531): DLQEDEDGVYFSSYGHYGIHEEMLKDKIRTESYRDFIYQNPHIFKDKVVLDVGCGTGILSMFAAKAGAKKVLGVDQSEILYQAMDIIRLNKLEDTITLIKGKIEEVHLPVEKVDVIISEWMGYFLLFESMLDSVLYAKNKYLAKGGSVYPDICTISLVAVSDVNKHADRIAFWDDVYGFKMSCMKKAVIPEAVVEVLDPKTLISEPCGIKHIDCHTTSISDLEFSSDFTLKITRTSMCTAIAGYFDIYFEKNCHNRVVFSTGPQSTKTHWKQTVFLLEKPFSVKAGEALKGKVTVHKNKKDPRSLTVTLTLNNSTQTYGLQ
Summary of the method: as §1

[5] = target: PRMT8 (Homo sapiens, UniProt Q9NR22); assay: selectivity of YD1113/YD1290 on PRMT panel, PRMT8; conditions: 10 μM; PRMT panel
Sequence of PRMT8 (Q9NR22 whole entry, species assumed): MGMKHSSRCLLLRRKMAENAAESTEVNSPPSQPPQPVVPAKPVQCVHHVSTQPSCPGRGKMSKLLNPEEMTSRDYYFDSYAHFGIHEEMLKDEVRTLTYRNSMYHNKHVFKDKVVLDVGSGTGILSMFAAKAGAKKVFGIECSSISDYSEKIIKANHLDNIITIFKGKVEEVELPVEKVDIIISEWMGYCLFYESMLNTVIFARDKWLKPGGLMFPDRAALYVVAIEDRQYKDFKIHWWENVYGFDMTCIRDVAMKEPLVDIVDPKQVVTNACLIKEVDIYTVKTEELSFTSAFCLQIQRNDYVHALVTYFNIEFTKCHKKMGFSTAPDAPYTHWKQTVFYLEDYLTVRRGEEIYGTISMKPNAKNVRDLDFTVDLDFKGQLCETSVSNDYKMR
Summary of the method: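 Radioactivity-based PRMT activity assay run by an external provider; YD1113 profiled across the PRMT panel at 10 μM.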

[6] = target: T2, PRMT4 (Homo sapiens, UniProt Q86X55); assay: radioactive assay (Reaction Biology Corp.), inhibition of PRMT4
T2 sequence (Q86X55 1-608): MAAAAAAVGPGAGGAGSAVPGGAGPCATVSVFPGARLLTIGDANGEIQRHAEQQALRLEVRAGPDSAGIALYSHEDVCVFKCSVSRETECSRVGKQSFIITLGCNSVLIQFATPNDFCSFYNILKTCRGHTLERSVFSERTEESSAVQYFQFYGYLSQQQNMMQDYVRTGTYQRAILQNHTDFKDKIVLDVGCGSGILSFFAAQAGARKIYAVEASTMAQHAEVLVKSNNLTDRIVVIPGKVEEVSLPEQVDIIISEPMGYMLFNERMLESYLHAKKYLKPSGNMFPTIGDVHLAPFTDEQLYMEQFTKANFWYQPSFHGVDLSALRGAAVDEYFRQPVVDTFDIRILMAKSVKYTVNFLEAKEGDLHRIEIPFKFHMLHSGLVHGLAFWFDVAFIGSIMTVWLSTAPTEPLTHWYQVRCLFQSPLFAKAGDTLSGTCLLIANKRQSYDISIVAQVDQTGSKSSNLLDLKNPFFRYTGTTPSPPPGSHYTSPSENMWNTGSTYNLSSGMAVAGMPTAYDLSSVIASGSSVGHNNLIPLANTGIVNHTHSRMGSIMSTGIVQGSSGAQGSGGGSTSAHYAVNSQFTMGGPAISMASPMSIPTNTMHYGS
Description: as §2, §3

[7] = system: PRMT4; assay: as above
Description: as §2, §3

- IC50 [1]: 0.52 ± 0.07 µM
- inhibition at 10 µM [2]: 89%
- inhibition at 10 µM [3]: 30%
- inhibition at 10 µM [4]: 80%
- inhibition at 10 µM [5]: < 35%
- inhibition at 10 µM [6]: 97%
- IC50 [7]: 140 ± 13 nM
Structure (SMILES): Nc1ncnc2c1ncn2[C@@H]1O[C@H](CSCCNC(=O)NCc2ccccc2)[C@@H](O)[C@H]1O [Compound 7a, 1-(2-((((2S,3S,4R,5R)-5-(6-amino-9H-purin-9-yl)-3,4-dihydroxytetrahydrofuran-2-yl)methyl)thio)ethyl)-3-benzylurea]
